From US20220107328A1, “METHODS OF TREATING LIVER DISEASES” (Camp4 Therapeutics Corporation, priority 2018, published 2022)
Structures can show the parent of a compound that is named as a salt.

Assays:
[1] = tested on: PNPLA3 mRNA; experiment: qRT-PCR of PNPLA3 mRNA in human primary hepatic stellate cells; format: cell-based; conditions: 3 μM, relative to GAPDH
[2] = tested on: COL1A1 mRNA; experiment: qRT-PCR of COL1A1 mRNA in human primary hepatic stellate cells; format: cell-based; conditions: 3 μM, relative to GAPDH
[3] = tested on: PCSK9 mRNA; experiment: qRT-PCR of PCSK9 mRNA in primary hepatocytes; format: cell-based, human; conditions: donor 4178, 3 μM, relative to GUSB
[4] = tested on: PNPLA3 mRNA; experiment: qRT-PCR of PNPLA3 mRNA in compound-treated primary human hepatocytes; conditions: for Primary Hepatocytes 4178 PNPLA3 (fold change in mRNA expression): donor 4178, 3 μM; for Primary Hepatocytes 4178 PNPLA3 (fold change in mRNA expression) / Primary Hepatocytes 4282 PNPLA3 (fold change in mRNA expression): relative to GUSB; for Primary Hepatocytes 4282 PNPLA3 (fold change in mRNA expression): donor 4282, 3 μM; for Relative PINPLA3 mRNA: hepatocytes; for PNPLA3 expression by reported compound specificity (in words): summary of mTOR/PI3K inhibitor testing
Experimental: Cryopreserved hepatocytes were cultured in plating media for 16 hours, transferred to maintenance media for 4 hours. Cultured on serum-free media for 2 hours, then a compound was added. The hepatocytes were maintained on the serum-free media for 16 hours prior to gene expression analysis.
Human hepatocytes cultured as described above were plated in 24-well format, adding 375,000 cells per well in a volume of 500 μl plating medium. Four hours before treatment, cells were washed with PBS and the medium was changed to either: fresh maintenance medium (complete) or modified maintenance medium.
Compound stocks were prepared at 1000× final concentration and added in a 2-step dilution to the medium to reduce risk of a compound precipitating out of solution when added to the cells, and to ensure reasonable pipetting volumes. One at a time, each compound was first diluted 10-fold in warm (about 37° C.) modified maintenance medium (initial dilution=ID), mixed by vortexing, and the ID was diluted 100-fold into the cell culture (e.g. 5.1 μl into 1 well of a 24-well plate containing 0.5 mL medium). The plate was mixed by carefully swirling and after all wells were treated and returned to the incubator overnight. If desired, separate plates/wells were treated with vehicle-only controls and/or positive controls. If using multi-well plates, controls were included on each plate. After about 18 hours, cells were harvested for further analysis, e.g., ChIP-seq, RNA-seq, ATAC-seq, etc.
Analysis of the fold changes in expression as measured by qRT-PCR were performed using the technique below. The control was DMSO, and the treatment was the selected compound (CPD). The internal control was GAPDH or B-Actin (or otherwise indicated), and the gene of interest is the target. First, the averages of the 4 conditions were calculated for normalization: DMSO:GAPDH, DMSO:Target, CPD: GAPDH, and CPD:Target. Next, the ΔCT of both control and treatment were calculated to normalize to internal control (GAPDH) using (DMSO:Target)−(DMSO:GAPDH)=ΔCT control and (CPD:Target)−(CPD: GAPDH)=ΔCT experimental. Then, the ΔΔCT was calculated by ΔCT experimental−ΔCT control. The Expression Fold Change (or Relative Quantification, abbreviated as RQ) was calculated by 2−(ΔΔCT) (2-fold expression change was shown by RNA-Seq results provided herein).
The aim of the validation studies was to test the identified compounds from key pathways, and expand the compound franchise to identify other potential hits. Candidate compounds were subjected to validation with qRT-PCR in human hepatocytes. qRT-PCR was performed on samples of primary human hepatocytes from a second donor treated with the candidate compounds. Compounds were tested at concentrations ranging from 0.01 μM to 50 μM, with the majority tested at 10 μM.
Primary human hepatocytes and stellate cells were also incubated with inhibitors of the TGFβ pathway and PNPLA3 gene expression changes assessed via qRT-PCR as previously described. In addition, primary hepatocytes and stellate cells were treated with TGFβ-ligand alone or with selected the small molecule inhibitors for 18 hours and subsequently harvested. for gene expression assays.
The other set was harvest for mRNA processing as previously described.

[5] = tested on: PNPLA3 mRNA; experiment: qRT-PCR of PNPLA3 mRNA in compound-treated mouse hepatocytes; format: cell-based; conditions: mouse hepatocytes, 1 μM, normalized to ACTB

Compound	Primary Stellate cells PNPLA3 (fold change in mRNA expression) [1]	Primary Stellate cells COL1A1 (fold change in mRNA expression) [2]	Primary Hepatocytes 4178 PCSK9 (fold change in mRNA expression) [3]	Primary Hepatocytes 4178 PNPLA3 (fold change in mRNA expression) [4]	Primary Hepatocytes 4282 PNPLA3 (fold change in mRNA expression) [4]	also measured
Cc1c(CN2CCN(C(=O)[C@H](C)O)CC2)sc2c(N3CCOCC3)nc(-c3cnc(N)nc3)nc12 [Apitolisib (GDC-0980, RG7422)]	0.56	0.54	0.31	0.32	0.46	–
Cc1c(CN2CCN(C(=O)[C@H](C)O)CC2)sc2c(N3CCOCC3)nc(-c3cnc(N)nc3)nc12 [Apitolisib]	–	–	–	–	–	Primary Stellate cells PNPLA3 (fold change in mRNA expression) ([1]; listed as GDC-0980): 0.67; Primary Stellate cells COL1A1 (fold change in mRNA expression) ([2]; listed as GDC-0980): 0.61; Primary Hepatocytes 4178 PCSK9 (fold change in mRNA expression) ([3]; listed as GDC-0980): 0.40; Primary Hepatocytes 4178 PNPLA3 (fold change in mRNA expression) ([4]; listed as GDC-0980): 0.37; Primary Hepatocytes 4282 PNPLA3 (fold change in mRNA expression) ([4]; listed as GDC-0980): 0.40; Relative PINPLA3 mRNA ([4]; 0.1 uM): 0.893; Relative PINPLA3 mRNA ([4]; 0.3 uM): 0.669; Relative PINPLA3 mRNA ([4]; 1 uM): 0.420; Relative PINPLA3 mRNA ([4]; 3 uM): 0.365; PNPLA3 expression by reported compound specificity (in words) [4]: most robust PNPLA3 inhibition
Cc1nc(NC(=O)N2CCC[C@H]2C(N)=O)sc1-c1ccnc(C(C)(C)C(F)(F)F)c1 [BYL-719]	0.70	1.24	0.71	0.69	0.60	–
Nc1cc(C(F)(F)F)c(-c2cc(N3CCOCC3)nc(N3CCOCC3)n2)cn1 [Buparlisib (BKN120, NVE-BKM120)]	0.50	0.81	0.46	0.52	0.60	–
CO[C@H]1CC[C@H](N2C(=O)CNc3ncc(-c4ccc(C(C)(C)O)nc4)nc32)CC1 [CC-223]	0.33	0.50	0.72	0.51	0.80	–
COc1ccc(-c2nc(N3CCOCC3)c3sc(CN(C)c4ncc(C(=O)NO)cn4)cc3n2)cn1 [CUDC-907]	1.33	0.41	0.83	0.50	0.50	–
O=C1OC(COc2ccccc2[N+](=O)[O-])CC1Cc1ccccc1 (centres unmarked) [Compound 3BDO]	0.91	1.03	1.01	1.10	1.00	–
CO[C@H]1C[C@@H]2CC[C@@H](C)[C@@](O)(O2)C(=O)C(=O)N2CCCC[C@H]2C(=O)O[C@H]([C@H](C)C[C@@H]2CC[C@@H](OP(C)(C)=O)[C@H](OC)C2)CC(=O)[C@H](C)/C=C(\C)[C@@H](O)[C@@H](OC)C(=O)[C@H](C)C[C@H](C)/C=C/C=C/C=C/1C [Deforolimus]	–	–	–	–	–	Relative PNPLA3 mRNA levels [5]: 0.30 ± 0.10
Cc1nc(-c2cn3c(n2)-c2ccc(-c4cnn(C(C)(C)C(N)=O)c4)cc2OCC3)n(C(C)C)n1 [GDC-0032]	0.61	1.05	0.47	0.58	0.60	–
COc1ncc(-c2ccc3nccc(-c4ccnnc4)c3c2)cc1NS(=O)(=O)c1ccc(F)cc1F [GSK2126458]	0.90	0.42	0.91	0.92	0.80	Relative PINPLA3 mRNA ([4]; 1 uM): 0.395; Relative PINPLA3 mRNA ([4]; 10 uM): 0.800
C[C@H](NC(=O)c1c(N)nn2cccnc12)c1cc2cccc(C#Cc3cnn(C)c3)c2c(=O)n1-c1ccccc1 [IPI-549]	0.75	1.00	0.74	0.68	0.68	–
CO[C@@H](C)Cn1c(=O)n(C)c2cnc3ccc(-c4cncc(C(C)(C)O)c4)cc3c21 [LY3023414]	0.94	0.49	0.65	0.80	1.00	–
O=[N+]([O-])c1ccc(Nc2nc(N3CCOCC3)nc(N3CCOCC3)n2)cc1 [MHY1485]	0.86	0.87	1.04	1.10	1.20	–
Nc1nc2cc(-c3ccc4ncc(C(=O)N5CCOCC5)n4c3)ccc2o1 [MLN1117]	0.70	1.14	0.69	1.57	0.97	–
Nc1cc(C(F)(F)F)c(-c2cc(N3CCOCC3)nc(N3CCOCC3)n2)cn1 [NVP-BKM120 (Hydrochloride)]	0.43	0.70	0.50	0.56	0.70	–
Nc1cc(C(F)(F)F)c(-c2cc(N3CCOCC3)nc(N3CCOCC3)n2)cn1 [NVP-BKM120]	0.43	0.66	0.75	0.60	0.70	–
Nc1cc(C(F)(F)F)c(-c2nc(N3CCOCC3)nc(N3CCOCC3)n2)cn1 [PQR309]	0.88	0.81	0.50	0.47	0.60	Relative PINPLA3 mRNA ([4]; 0.1 uM): 1.353; Relative PINPLA3 mRNA ([4]; 0.3 uM): 0.8236; Relative PINPLA3 mRNA ([4]; 1 uM): 0.5267; Relative PINPLA3 mRNA ([4]; 3 uM): 0.4657; PNPLA3 expression by reported compound specificity (in words) [4]: most robust PNPLA3 inhibition
O=c1c(O)c(-c2ccc(O)c(O)c2)oc2cc(O)cc(O)c12 [Quercetin]	1.11	0.94	0.95	1.16	0.93	–
CCOC(=O)C1=C(N)Oc2ccc(Cl)cc2C1C(C#N)C(=O)OCC (centres unmarked) [SC79]	0.85	0.98	1.11	1.10	0.94	–
Cn1cc(-c2nc(N[C@@H]3CCCC[C@@H]3N)c(F)c3c2C(=O)NC3)cn1 [TAK-659]	–	–	–	–	–	Relative PNPLA3 mRNA levels [5]: 0.31 ± 0.12; Relative PNPLA3 mRNA levels ([4]; Syk pathway inhibitors, 10 μM, human hepatocytes, normalized to B2M, mean of three replicates ± standard deviation): 0.44 ± 0.11
Cc1nc(-c2cn3c(n2)-c2ccc(-c4cnn(C(C)(C)C(N)=O)c4)cc2OCC3)n(C(C)C)n1 [Taselisib (GDC 0032)]	0.77	1.32	0.67	0.72	0.62	–
CCn1c(=O)c(-c2cc[nH]n2)cc2c(C)nc(N)nc21 [Voxtalisib]	–	–	–	–	–	Relative PNPLA3 mRNA levels [5]: 0.31 ± 0.08
c1cncc(CN2CCC(n3ncc4c(N5CCOCC5)nc(-c5ccc6[nH]ccc6c5)nc43)CC2)c1 [WAY600]	–	–	–	–	–	Relative PNPLA3 mRNA levels [5]: 0.67 ± 0.21
FC(F)c1nc2ccccc2n1-c1nc(N2CCOCC2)nc(N2CCOCC2)n1 [ZSTK474]	0.68	0.71	0.66	0.60	0.80	–
CC(C)Oc1ccc(-c2nn([C@@H](C)c3oc4ccc(F)cc4c(=O)c3-c3cccc(F)c3)c3ncnc(N)c23)cc1F [umbralisib (TGR-1202)]	1.10	1.15	0.80	0.90	0.80	–
